Measurements: patent US20260287577A1, “APPLICATIONS OF HEPATOCYTE CO-CULTURE SYSTEM” (LifeNet Health, priority 2023, published 2026)

Experiments:
Type in all cases: cell-based, human
[1] = test system: PHHs in the hTCS and DhTCS; assay: Nile Red staining of lipid accumulation in PHHs cultured in hTCS/DhTCS; settings: normal PHHs in hTCS, lipogenic medium plus 0.5 μM OCA
From the text: All-Human Triculture System. The hTCS was set up as previously described, including the medias, cell types, and expected functional performance. This protocol follows the guidelines of […] Health's ethics committee. All cells were isolated from donor tissue fully consented for research purposes by […] Health. PHHs have been designated as normal or diseased based on a histopathologic assessment of the tissue of origin by a board-certified pathologist, using the standard MASH CRN Scoring System. Formalin-fixed paraffin-embedded tissue sections were stained with H&E (FIG. 38) and Masson's Trichrome (FIG. 39) and assessed for steatosis, lobular inflammation, and hepatocyte ballooning to form the MAFLD Activity Score (NAS). Fibrosis was scored separately on a 4-point scale according to the classification as described by Kleiner et al (Kleiner et al., 2005). Tissues with a NAS of ≥4 were designated “Diseased” (n=4) while those with NAS of ≤3 were categorized as “Normal” (n=7) (Table 1). Glucose, Oleic Acid, and OCA Treatment. […] Nile Red Staining. Cells were washed with 1×DPBS (-Ca^++/-Mg^++) (Thermo Fisher) three times, and then Nile Red was added at a 1:500 dilution (Abcam). […] Nile Red staining was quantified by determining the densitometric fluorescence value (red channel) using Image J.

[2] = test system: PHHs cultured in the hTCS; assay: Bile canaliculi formation, CDFDA staining; settings: normal PHHs in hTCS, treated medium with addition of OCA (0.5 μM)
Experimental: Glucose, Oleic Acid, and OCA Treatment. […] 5-(and-6)-Carboxy-2′, 7′-Dichlorofluorescein Diacetate Staining. To visualize bile canaliculi formation, cells were rinsed twice with 1×DPBS (—Ca^++/—Mg^++) (Thermo Fisher). Fresh medium plus 5 μM 5-(and-6)-Carboxy-2′, 7′-Dichlorofluorescein Diacetate (CDFDA) (Thermo Fisher) were added to the cells and incubated for 20 minutes at 37° C. Cells were then washed twice with 1×DPBS (—Ca^++/—Mg^++), and DMEM (no phenol red) (Gibco) was added to the cells. Images were taken with an EVOS FL cell imaging system (Thermo Fisher) using a 10× objective.

[3] = test system: PHHs in the hTCS and DhTCS; assay: Albumin secretion (ELISA) by PHHs in hTCS/DhTCS; settings: normal PHHs in hTCS
Experimental: Albumin and Urea Assays. Supernatant was collected on the indicated days for measurement of albumin and urea. Three wells or greater were designated for each condition. Samples were run in duplicate. The concentration of albumin was determined using an ELISA assay (Abcam, Cambridge, MA) and performed according to the manufacturer's instructions. Urea was measured by a colorimetric kit (Stanbio, Boerne, TX) and performed according to the manufacturer's instructions. Bicinchoninic Acid Assay (BCA). The BCA assay was performed with supernatant collected on the designated day. Three wells or greater were designated for each condition. Samples were run in duplicate. Total protein concentration was determined using a kit (Thermo Fisher, Waltham, MA) and performed according to the manufacturer's instructions. Glucose, Oleic Acid, and OCA Treatment.

CC[C@H]1[C@@H](O)[C@@H]2[C@H](CC[C@]3(C)[C@@H]([C@H](C)CCC(=O)O)CC[C@@H]23)[C@@]2(C)CC[C@@H](O)C[C@@H]12 [OCA, 6α-ethyl-chenodeoxycholic acid]
Nile Red staining (lipid accumulation) ([1]; day 7): 134.6%±13.6 | Nile Red staining (lipid accumulation) ([1]; day 14, significantly less than treated only, 20160 min): 126.1%±8.5 | bile canalicular network formation compared to untreated PHHs [2]: appeared to increase bile canalicular network formation | albumin, treated plus OCA compared to treated only ([3]; day 1, not significant): An increase in albumin | albumin secretion ([3]; lipogenic medium plus 0.5 μM OCA, day 7): 13,706±4,738 ng/mg total protein | albumin levels ([3]; lipogenic medium plus 0.5 μM OCA, day 14): 2,219±400 ng/mg total protein
